# Assay results reported in PubChem BioAssay AID1259407 (Chemical Carcinogenesis Research Information System (CCRIS), 2018).
# Calls of active or inactive are those of the source. The rule behind the calls is not given here.
# Tested on: CCRIS mutagenicity, Ames/micronucleus/aberration tests
# Test: CCRIS mutagenicity studies
# [1] = Test System: AMES SALMONELLA TYPHIMURIUM, Strain/Indicator: TA98, Metabolic Activation: NONE, Method: STANDARD PLATE
# [2] = Test System: AMES SALMONELLA TYPHIMURIUM, Strain/Indicator: TA100, Metabolic Activation: NONE, Method: STANDARD PLATE
compound,measurement,setting,value
CC(C)(C)c1ccc(/C=C/c2ccc(N)cc2)cc1,mutagenic call,[1],inactive; negative
same,mutagenic call,"Test System: AMES SALMONELLA TYPHIMURIUM, Strain/Indicator: TA98, Metabolic Activation: RAT, LIVER, S-9, AROCLOR, Method: STANDARD PLATE",inactive; negative
same,mutagenic call,[2],inactive; negative
same,mutagenic call,"Test System: AMES SALMONELLA TYPHIMURIUM, Strain/Indicator: TA100, Metabolic Activation: RAT, LIVER, S-9, AROCLOR, Method: STANDARD PLATE",inactive; negative
Cc1nc(N)cc2[nH]c3ccccc3c12,mutagenic call,"Test System: AMES SALMONELLA TYPHIMURIUM, Strain/Indicator: TA98, Metabolic Activation: HUMAN, BLOOD, CYTOSOL, Method: PREINCUBATION",active; positive
same,mutagenic call,"Test System: AMES SALMONELLA TYPHIMURIUM, Strain/Indicator: TA98, Metabolic Activation: MOUSE, LIVER, HEPATOCYTES",active; positive
same,mutagenic call,"Test System: AMES SALMONELLA TYPHIMURIUM, Strain/Indicator: TA98, Metabolic Activation: MOUSE, LIVER, HEPATOCYTES, 2,3,7,8-TETRACHLORODIBENZO-P-DIOXIN",active; positive
same,mutagenic call,"Test System: AMES SALMONELLA TYPHIMURIUM, Strain/Indicator: TA98, Metabolic Activation: MOUSE, LIVER, MICROSOMES",active; positive
same,mutagenic call,"Test System: AMES SALMONELLA TYPHIMURIUM, Strain/Indicator: TA98, Metabolic Activation: MOUSE, LIVER, MICROSOMES, 2,3,7,8-TETRACHLORODIBENZO-P-DIOXIN",active; positive
same,mutagenic call,"Test System: AMES SALMONELLA TYPHIMURIUM, Strain/Indicator: TA98, Metabolic Activation: MOUSE, LIVER, MICROSOMES, TCDD, Method: STANDARD PLATE",active; positive
same,mutagenic call,"Test System: AMES SALMONELLA TYPHIMURIUM, Strain/Indicator: TA98, Metabolic Activation: MOUSE, LIVER, MICROSOMES, Method: STANDARD PLATE",active; positive
same,mutagenic call,"Test System: AMES SALMONELLA TYPHIMURIUM, Strain/Indicator: TA98, Metabolic Activation: RAT, BLADDER, S-9, PCB, Method: FLUCTUATION TEST",active; positive
same,mutagenic call,"Test System: AMES SALMONELLA TYPHIMURIUM, Strain/Indicator: TA98, Metabolic Activation: RAT, HEPATOCYTES, AROCLOR 1254, Method: PREINCUBATION",active; positive
same,mutagenic call,"Test System: AMES SALMONELLA TYPHIMURIUM, Strain/Indicator: TA98, Metabolic Activation: RAT, LIVER, S-9, AROCLOR 1254, Method: PREINCUBATION",active; positive
same,mutagenic call,"Test System: AMES SALMONELLA TYPHIMURIUM, Strain/Indicator: TA100, Metabolic Activation: RAT, BLADDER, S-9, PCB, Method: FLUCTUATION TEST",active; positive
same,mutagenic call,"Test System: AMES SALMONELLA TYPHIMURIUM, Strain/Indicator: TA100, Metabolic Activation: RAT, LIVER, S-9, AROCLOR 1254, Method: PREINCUBATION",inactive; negative
same,mutagenic call,"Test System: AMES SALMONELLA TYPHIMURIUM, Strain/Indicator: YG1019, Metabolic Activation: RAT LIVER S-9, AROCLOR, Method: PREINCUBATION",active; positive
same,mutagenic call,"Test System: UDS HAMSTER HEPATOCYTES, Strain/Indicator: THY INCORP, Metabolic Activation: NONE, Method: LIQUID SCINTILLATION COUNTING",inactive; negative
same,mutagenic call,"Test System: UDS RAT HEPATOCYTES, Strain/Indicator: THY INCORP, Metabolic Activation: NONE, Method: LIQUID SCINTILLATION COUNTING",inactive; negative
Cc1c(C(=O)O)c(O)cc2c1C(=O)c1c(O)c([C@@H]3O[C@H](CO)[C@@H](O)[C@H](O)[C@H]3O)c(O)c(O)c1C2=O,mutagenic call,"Test System: AMES SALMONELLA TYPHIMURIUM, Strain/Indicator: TA98, Metabolic Activation: HAMSTER, LIVER, S-9, AROCLOR 1254, Method: STANDARD PLATE",inactive; negative
same,mutagenic call,"Test System: AMES SALMONELLA TYPHIMURIUM, Strain/Indicator: TA98, Metabolic Activation: NONE",inactive; negative
same,mutagenic call,[1],inactive; negative
same,mutagenic call,"Test System: AMES SALMONELLA TYPHIMURIUM, Strain/Indicator: TA98, Metabolic Activation: RAT, LIVER, S-9, AROCLOR 1254 (10 OR 30%)",inactive; negative
same,mutagenic call,"Test System: AMES SALMONELLA TYPHIMURIUM, Strain/Indicator: TA98, Metabolic Activation: RAT, LIVER, S-9, AROCLOR 1254, Method: STANDARD PLATE",inactive; negative
same,mutagenic call,"Test System: AMES SALMONELLA TYPHIMURIUM, Strain/Indicator: TA100, Metabolic Activation: HAMSTER, LIVER, S-9, AROCLOR 1254, Method: STANDARD PLATE",inactive; negative
same,mutagenic call,"Test System: AMES SALMONELLA TYPHIMURIUM, Strain/Indicator: TA100, Metabolic Activation: NONE",inactive; negative
same,mutagenic call,[2],inactive; negative
same,mutagenic call,"Test System: AMES SALMONELLA TYPHIMURIUM, Strain/Indicator: TA100, Metabolic Activation: RAT, LIVER, S-9, AROCLOR 1254 (10%)",inactive; negative
same,mutagenic call,"Test System: AMES SALMONELLA TYPHIMURIUM, Strain/Indicator: TA100, Metabolic Activation: RAT, LIVER, S-9, AROCLOR 1254 (10 OR 30%)",inactive; negative
same,mutagenic call,"Test System: AMES SALMONELLA TYPHIMURIUM, Strain/Indicator: TA100, Metabolic Activation: RAT, LIVER, S-9, AROCLOR 1254, Method: STANDARD PLATE",inactive; negative
same,mutagenic call,"Test System: AMES SALMONELLA TYPHIMURIUM, Strain/Indicator: TA1535, Metabolic Activation: HAMSTER, LIVER, S-9, AROCLOR 1254, Method: STANDARD PLATE",inactive; negative
same,mutagenic call,"Test System: AMES SALMONELLA TYPHIMURIUM, Strain/Indicator: TA1535, Metabolic Activation: NONE",inactive; negative
same,mutagenic call,"Test System: AMES SALMONELLA TYPHIMURIUM, Strain/Indicator: TA1535, Metabolic Activation: NONE, Method: STANDARD PLATE",inactive; negative
same,mutagenic call,"Test System: AMES SALMONELLA TYPHIMURIUM, Strain/Indicator: TA1535, Metabolic Activation: RAT, LIVER, S-9, AROCLOR 1254 (10 OR 30%)",inactive; negative
same,mutagenic call,"Test System: AMES SALMONELLA TYPHIMURIUM, Strain/Indicator: TA1535, Metabolic Activation: RAT, LIVER, S-9, AROCLOR 1254, Method: STANDARD PLATE",inactive; negative
same,mutagenic call,"Test System: AMES SALMONELLA TYPHIMURIUM, Strain/Indicator: TA1537, Metabolic Activation: HAMSTER, LIVER, S-9, AROCLOR 1254, Method: STANDARD PLATE",inactive; negative
same,mutagenic call,"Test System: AMES SALMONELLA TYPHIMURIUM, Strain/Indicator: TA1537, Metabolic Activation: NONE",inactive; negative
same,mutagenic call,"Test System: AMES SALMONELLA TYPHIMURIUM, Strain/Indicator: TA1537, Metabolic Activation: NONE, Method: STANDARD PLATE",inactive; negative
same,mutagenic call,"Test System: AMES SALMONELLA TYPHIMURIUM, Strain/Indicator: TA1537, Metabolic Activation: RAT, LIVER, S-9, AROCLOR 1254 (10 OR 30%)",inactive; negative
same,mutagenic call,"Test System: AMES SALMONELLA TYPHIMURIUM, Strain/Indicator: TA1537, Metabolic Activation: RAT, LIVER, S-9, AROCLOR 1254, Method: STANDARD PLATE",inactive; negative
same,mutagenic call,"Test System: AMES SALMONELLA TYPHIMURIUM, Strain/Indicator: TA1538, Metabolic Activation: HAMSTER, LIVER, S-9, AROCLOR 1254, Method: STANDARD PLATE",inactive; negative
same,mutagenic call,"Test System: AMES SALMONELLA TYPHIMURIUM, Strain/Indicator: TA1538, Metabolic Activation: NONE, Method: STANDARD PLATE",inactive; negative
same,mutagenic call,"Test System: AMES SALMONELLA TYPHIMURIUM, Strain/Indicator: TA1538, Metabolic Activation: RAT, LIVER, S-9, AROCLOR 1254, Method: STANDARD PLATE",inactive; negative
same,mutagenic call,"Test System: MOUSE LYMPHOMA, Strain/Indicator: L5178Y (TK+/TK-), Metabolic Activation: NONE, Method: SUSPENSION/PLATE",active; positive. reevaluation of results: positive
same,mutagenic call,"Test System: MOUSE LYMPHOMA, Strain/Indicator: L5178Y (TK+/TK-), Metabolic Activation: RAT, LIVER, S-9, AROCLOR 1254, Method: SUSPENSION/PLATE",active; positive. reevaluation of results: positive
same,mutagenic call,"Test System: UDS RODENT HEPATOCYTES, Strain/Indicator: THY INCORP, Metabolic Activation: NONE, Method: AUTORADIOGRAPHY",inactive; negative
Fc1ccc(CCl)cc1,mutagenic call,[2],inactive; negative
